# Data as given in US10357516B2 (priority 2008, dated 2019).
# Marks after values point to notes of the source that are not given here.
# Legend:
# [1] = tested on: Vesicular stomatitis virus (VSV); format: cell-based
# [2] = tested on: Pseudomonas aerugenosa; experiment: Low level input full unit inactivation in RBC units; format: cell-based, Pseudomonas aeruginosa
# [3] = tested on: Staphylococcus aureus; experiment: Pathogen inactivation in RBC units (log reduction); format: cell-based
# [4] = tested on: Escherichia coli; experiment: Pathogen inactivation in RBC units (log reduction); format: cell-based
# [5] = tested on: P. aeruginosa; experiment: Pathogen inactivation in RBC units (log reduction), high level input; format: cell-based, Pseudomonas aeruginosa
# Protocol: Bacteria: Frozen working stocks of bacteria were inoculated into a 500 mL flask containing a mixture of 50% yeast extract media without added glucose and 50% fetal bovine serum. The flasks were incubated overnight in a shaking waterbath set at 37° C. Gram positive bacteria were spiked into the blood product directly from the overnight culture. The overnight cultures of Gram negative bacteria were further subcultured by a 1:1000 dilution into fresh culture medium and incubated as above until they reach log phase as determined by optical density. This log phase growth was spiked into the blood product for PI experiments.
# The PI process involves inoculation of RBC units with a culture of the organism to be tested. The typical target input titer of organisms in the RBC units was approximately 10^6 cfu or pfu/mL of RBC. In most cases the organism volume (including any culture medium) was approximately 1% of the RBC unit volume and was not typically greater than 10%. To evaluate inactivation of lower, more physiologically relevant, levels of bacteria, inputs from 10 to 10^5 cfu/unit were used.
# The dosing solutions were prepared and added to the units as follows: A 600 mM Glutathione (GSH) solution with 1 equivalent of NaOH was prepared by dissolving 2.8 g of GSH in ˜12 mL of 0.9% saline and 0.9 mL of 10 N NaOH. The appropriate volume of GSH solution was drawn into a 20 mL capacity syringe. The volume used was typically 10 mL of GSH solution per 280 mL of RBC, plus 2 mL line loss to generate 20 mM GSH in the dosed RBC unit. The syringe containing GSH was attached to the mixing container using the filtered lead that shares a Y fitting with the lead connected to the incubation container. The unit was placed on a rocker to facilitate top to bottom mixing during addition of dosing solutions. The GSH was added to the unit while the unit is mixing on the rocker. […]
# Log reduction for each unit was determined by taking the log of the ratio of pre-treatment titer to post-treatment titer, where titers were expressed as 10×cfu or pfu/mL. […]
# [6] = tested on: Serratia marcescens; experiment: Pathogen inactivation in RBC units (log reduction); format: cell-based
# [7] = tested on: Yersinia enterocolitica; format: cell-based
# [8] = low level input, 200 μM S-303, 20 mM GSH (1 b.e.), RT 20 hours then 37° C. ~20 hours
# [9] = diluted SAG-M RBC units, 20 mM GSH sodium salt, 0.2 mM S-303, 3 hour incubation, n = 4
# [10] = high level input, 130 μM S-303, 13 mM GSH (1 b.e.), diluted with diluent solution, 3 h RT, N = 2
# [11] = high level input, 200 μM S-303, 20 mM GSH (1 b.e.), 3 h RT, N = 2
# [12] = high level input, 200 μM S-303, 20 mM GSH (1 b.e.), without leukofiltration, 3 h RT, N = 2
compound,measurement,setting,value
"O=C(CCNc1c2ccccc2nc2ccccc12)OCCN(CCCl)CCCl [S-303, β-alanine, N-(acridin-9-yl), 2-[bis(2-chloroethyl)amino]ethyl ester]","Log Reduction GSH (20 mM), 1 b.e.",[1],>5.9 log
same,"Log Reduction GSH (20 mM), 2 b.e.",[1],4.2 log
same,"Mean Log10 Reduction, 40% Hematocrit",[1]; N = 2,5.9 log10
same,"Mean Log10 Reduction, 60% Hematocrit",[1]; N = 2,>5.9 log10
same,"Mean Log10 Reduction, 80% Hematocrit",[1]; N = 2,>6.2^b log10
same,Pathogen inactivation of Pseudomonas aeruginosa,[2],complete inactivation
same,"Full Unit Inactivation, 40% Hematocrit","[2]; low level input, 130 μM S-303, 13 mM GSH (1 b.e.), RT 20 hours then 37° C. ~20 hours",≥2.5 log10
same,"Full Unit Inactivation, 60% Hematocrit",[2]; [8],≥2.5 log10
same,"Full Unit Inactivation, 80% Hematocrit",[2]; [8],≥2.7 log10
same,"Log Reduction GSH (20 mM), 1 b.e.",[3],6.0 ± 0.3 log
same,"Log Reduction GSH (20 mM), 2 b.e.",[3],6.4 log
same,Average Log Kill,[3]; [9],4.15 log
same,"Mean Log10 Reduction, 40% Hematocrit",[3]; [10],>7 log10
same,"Mean Log10 Reduction, 60% Hematocrit",[3]; [11],6.7 log10
same,"Mean Log10 Reduction, 80% Hematocrit",[3]; [12],≥5.8^b log10
same,"Log Reduction GSH (20 mM), 1 b.e.",[4],5.9 ± 0.8 log
same,"Log Reduction GSH (20 mM), 2 b.e.",[4],6.5 log
same,Average Log Kill,[4]; [9],≥6.69 log
same,"Mean Log10 Reduction, 40% Hematocrit",[4]; [10],6.6 log10
same,"Mean Log10 Reduction, 60% Hematocrit","[4]; high level input, 200 μM S-303, 20 mM GSH (1 b.e.), 3 h RT, n = 3",6.1^c log10
same,"Mean Log10 Reduction, 80% Hematocrit",[4]; [12],3.8^b log10
same,"Log Reduction GSH (20 mM), 1 b.e.","[5]; P. aeruginosa, 0.2 mM S-303, 20 mM GSH with 1 equivalent NaOH, AS-3 RBC ~60% hematocrit, 3 h at 20 to 25° C.",1.2 ± 0.4 log
same,"Log Reduction GSH (20 mM), 2 b.e.","[5]; P. aeruginosa, previous conditions, GSH neutralized with 2 equivalents NaOH",1.8 log
same,Average Log Kill,[5]; [9],3.35 log
same,"Log Reduction GSH (20 mM), 1 b.e.",[6],3.7 ± 0.4 log
same,"Log Reduction GSH (20 mM), 2 b.e.",[6],4.8 log
same,Average Log Kill,[6]; [9],4.20 log
same,"Mean Log10 Reduction, 40% Hematocrit",[6]; [10],3.1 log10
same,"Mean Log10 Reduction, 60% Hematocrit",[6]; [11],4.5 log10
same,"Mean Log10 Reduction, 80% Hematocrit",[6]; [12],4.4^b log10
same,"Log Reduction GSH (20 mM), 1 b.e.","[7]; Y. enterocolitica, 0.2 mM S-303, 20 mM GSH with 1 equivalent NaOH, AS-3 RBC ~60% hematocrit, 3 h at 20 to 25° C.",5.0 ± 0.4 log
same,"Log Reduction GSH (20 mM), 2 b.e.","[7]; Y. enterocolitica, previous conditions, GSH neutralized with 2 equivalents NaOH",4.6 log
same,Average Log Kill,[7]; [9],≥6.57 log
same,"Mean Log10 Reduction, 40% Hematocrit",[7]; [10],6.1 log10
same,"Mean Log10 Reduction, 60% Hematocrit",[7]; [11],4.9 log10
same,"Mean Log10 Reduction, 80% Hematocrit",[7]; [12],3.4^b log10
